The subject of assay [1] is S. aureus. The assay is described as follows: Minimum inhibitory and bactericidal concentration on S. aureus in vitro. As to conditions: for bacteriostatic and bactericidal activity: in vitro. It is filed as cell-based, Staphylococcus aureus. As to the method:
(§1) Miller et al., Arch Dermatol 124:209-15, 1988; Wille and Kydonieus, Skin Pharmacol Appl Skin Physiol 16:176-87, 2003. To test the working hypothesis, a series of in vitro experiments were first performed in which the effect of each lipid was measured on the growth of S. pyogenes, S. aureus and E. coli.
(§2) Bacteria. S. aureus Xen8.1 (parental strain 8325-4), S. pyogenes Xen20 (derived from serotype M49, strain 591) and E. coli Xen14 (derived from EPEC WS2572) were obtained from Xenogen (Carnbury, N.J.)

The test system of assay [2] is S. pyogenes. The assay is described as follows: microbe, parasite or virus in culture. As to conditions: for bacteriostatic and bactericidal activity: S. pyogenes, in vitro; for MBC / MIC: Streptococcus pyogenes; for MBC: read-out: MBC (Minimum Bactericidal Concentration); for MIC: read-out: MIC (Minimum Inhibitory Concentration). Here is the method: as §1, §2
The subject of assay [3] is S. aureus. The assay is described as follows: S. aureus skin infection in flake (flk/flk) mutant mice. It is filed as in vivo, mouse. The following applies: flake mutants; 100 μl of 100 μM every two days. As to the method:
However, complete rescue of the phenotype was not achieved by this pharmacological approach.
A. Palmitoleate injection accelerates bacterial clearance in wild-type mice. Luminescence (expressed as a percentage of the initial inoculum) was measured in control (C57BL/6) mice inoculated with S. aureus (at day 0) and treated by vehicle (DMSO) or palmitoleate injections every two days (arrows). B. Picture of control (C57BL/6) mice 9 days after S. aureus infection treated by DMSO (top) or palmitoleate (bottom) injections. C. Histogram showing the size of the lesion measured at day 9 after the infection in control (B6) mice treated with DMSO or palmitoleate. ** indicates P value <0.01. D. Palmitoleate treatment in S. aureus-infected flake mice. The protocol is similar as in A, except that 100 μl injections of a 75 mM solution of palmitoleate were performed. E. Pictures of infected flake mice at day 12 after DMSO (top) or palmitoleate (bottom) treatment. F. Size of the lesion (determined at day 12) in infected flk mutants treated with DMSO or palmitoleate. * indicates P value <0.05.
Skin infection. […] Luminescence was monitored daily with a CCD camera (5 min exposure of the animals) and quantification was done with the IVIS program from Xenogen.

Assay [4] deals with S. aureus. Put plainly: S. aureus skin infection in wild-type (C57BL/6) mice, luminescence and wound size. The assay is classed as in vivo, mouse. As to the method: To investigate the physiological relevance of this antimicrobial activity, wild-type mice were inoculated with S. aureus and treated the infected animals by repeated (every two days) subcutaneous injections of palmitoleate (100 μl of a 100 μM solution in DMSO), or DMSO alone at the site of infection. The results of this experiment are illustrated in FIGS. 6A and B. For both groups of mice (n=6 animals), luminescence is expressed as a percentage of the initial inoculum, determined 24 hours after infection. […] As a consequence of improved S. aureus elimination, the diameter of the ulcerative wound (measured at day 9) in lipid-treated animals is one fourth that observed in controls (FIG. 6C).
A. Palmitoleate injection accelerates bacterial clearance in wild-type mice. Luminescence (expressed as a percentage of the initial inoculum) was measured in control (C57BL/6) mice inoculated with S. aureus (at day 0) and treated by vehicle (DMSO) or palmitoleate injections every two days (arrows). […] Histogram showing the size of the lesion measured at day 9 after the infection in control (B6) mice treated with DMSO or palmitoleate. ** indicates P value <0.01. […] F. Size of the lesion (determined at day 12) in infected flk mutants treated with DMSO or palmitoleate. * indicates P value <0.05. […]

Assay [5] has as its system Scd1 expression in peritoneal macrophages. Put plainly: Scd1 expression by RT-PCR in stimulated peritoneal macrophages. The assay is classed as cell-based. As to conditions: wild-type mouse peritoneal macrophages, within 18 hours after stimulation. From the text: A. SignalScan analysis of the Scd1 promoter. NF-κB and ISRE (interferon-stimulated regulatory element) are shown. B. RT-PCR detection of Scd1 and β-actin transcripts in skin biopsies of non-infected controls (C57BL/6, lane 1) and Tlr2−/− (lane 4) animals or after infection by S. aureus (lanes 2 and 5) or E. coli (lane 3). PCR products after 30 and 40 cycles are shown. M, size standard. C. RT-PCR detection of Scd1 and β-actin transcripts in controls (0) and MALP-induced peritoneal macrophages isolated from wild-type mice after 2, 4, 8 and 18 h. D. Quantification of the Scd1/β-actin ratio.
Macrophages, which represent an ideal system in which to study TLR signaling, also express the Scd1 gene, as reported recently. Uryu et al., Biochem Biophys Res Commun 303:302-5, 2003. To determine whether isolated macrophages are capable of upregulating Scd1 and to determine the kinetics of the response, peritoneal macrophages isolated from wild-type mice were stimulated with, synthetic macrophage-activating lipopeptide (MALP-2, EMC microcollections GmbH, Germany), a known TLR2 agonist. Takeuchi et al., J Immunol 164:554-7, 2000. […]
Semi-quantitative RT-PCR. […] Hoebe et al., J Endotoxin Res 9:250-5, 2003. hSCD1 and hFADS2 expression SZ95 sebocytes was measured by semi-quantitative RT-PCR using the following oligonucleotides: […]

Assay [6] relates to SZ95 sebocytes. Put plainly: SZ95 human sebocytes: IL-6/IL-8 ELISA and SCD1/FADS2 RT-PCR. The following applies: SZ95 cells. It is filed as cell-based. The source says:
To corroborate potential relevance of inducible Scd1 expression in human skin defense against Gram-positive pathogens, the effect of MALP-2 was investigated on the immortalized human sebocyte cell line SZ95. Zouboulis et al., J. Invest Dermatol. 113:1011-1020, 1999. […] These observations were extended by monitoring the expression of the fatty acid desaturase2 (FADS2) gene. FADS2 encodes a protein with enzymatic properties similar to those of SCD1 and was recently shown to be deficient in a patient affected by a severe skin condition manifested by cheilosis, a hyperkeratotic rash over the arms and legs and perineal dermatitis. Williard et al., J. Lipid Res. 42:501-508, 2001.
A. IL-6 production is induced in SZ95 cells after MALP-2 treatment (50 ng/ml). […] B. Quantification of IL-8 in the same conditions as in A. C. RT-PCR detection of SCD1 and FADS2 expression 4 and 18 hours after LPS and MALP-2 stimulation. GAPDH expression was used as control. D. Quantification of the SCD1 and FADS2 signals measured in two independent experiments (+/− s.e.m) after normalization with the GAPDH signal.
Cell culture. SZ95 sebocytes were maintained in HSG-Med (Sebomed, Berlin, Germany) supplemented with 10% heat inactivated FCS, 5 ng/ml human epidermal growth factor, 1 mM CaCl2, 10^−5 M palmitic acid, 50 μg/ml gentamicin for 2, 4, 8 and 18 hours with/without 50 ng/ml MALP-2 or 100 ng/ml LPS and the supernatants were collected for IL6 and IL8 evaluation by ELISA. RNA was isolated from the 4- and 18-hour samples by the RNeasy Midi kit (Qiagen, Hilden, Germany) and purified by the RNase-Free DNase set (Qiagen) for RT-PCR.
Semi-quantitative RT-PCR. Wild-type and Tlr2^−/− mutant mice were depilated and infected by subcutaneous injection of S. aureus or E. coli (5×10^5 […]). After 24 h, the skin of the infected area was dissected and total RNA was extracted by the Trizol (Gibco) method. […] Hoebe et al., J Endotoxin Res 9:250-5, 2003. hSCD1 and hFADS2 expression SZ95 sebocytes was measured by semi-quantitative RT-PCR using the following oligonucleotides: […]

[7] abbreviates: Staphylococcus aureus, average of 3 experiments.

Values after ≈ are worked out from the molar mass of the structure shown.

Take `CCCCCCCC/C=C\CCCCCCCC(=O)O` [Oleate, oleic acid]: the MIC in assay [1] (setting [7]) is above 75 µM; in assay [2], 8.3 µM (≈ 2.34 µg/mL). In addition, the “bacteriostatic and bactericidal activity” value in assay [1] was “strong bacteriostatic and bactericidal activity”; in assay [2], “strong bacteriostatic and bactericidal activity”. Moreover, the MBC in assay [2] was 13.3 µM (≈ 3.76 µg/mL).

On to `CCCCCC/C=C\CCCCCCCC(=O)O` [Palmitoleate, palmitoleic acid], for which the “bacterial growth” value in assay [3] is “marked reduction of bacterial growth between days 1 and 4”. In assay [1] (setting [7]), this molecule came in with an MBC of 50 µM (≈ 12.7 µg/mL) and an MIC of 36.6 µM (≈ 9.31 µg/mL). For the same molecule, the “bacteriostatic and bactericidal activity” value in assay [1] is “strong bacteriostatic and bactericidal activity”. The “reduction of luminescence compared to vehicle-treated mice” value in assay [4] (9 days after S. aureus inoculation, s.c. 100 μl of 100 μM in DMSO every two days) came out at 90%. The “diameter of the ulcerative wound relative to controls” value in assay [4] (measured at day 9, s.c. 100 μl of 100 μM every two days) is “one fourth”. Further, in assay [2], the “bacteriostatic and bactericidal activity” value was “strong bacteriostatic and bactericidal activity”; the MBC stood at 10 µM (≈ 2.54 µg/mL); the MIC stood at 10 µM (≈ 2.54 µg/mL).

Turning to MALP-2, in assay [5], the “increase of Scd1 expression” value stood at 4 fold. Also, the “SCD1 transcription” value in assay [6] (4 hours after stimulation) is given as “up-regulated”. In addition, in assay [6] (18 hours after stimulation), the “FADS2 expression” value was “slightly but specifically induced”. In addition, the “IL-6 and IL-8 production” value in assay [6] (MALP-2 50 ng/ml, LPS 100 ng/ml) is “increased IL-6 and IL-8 production”.

For the origin of these results see patent publication US20090202519A1, “Compositions and methods for treating gram positive bacterial infection in a mammalian subject” (The Scripps Research Institute, priority 2005, published 2009).
